Key:
[1] = system: E. faecalis V583 and FITC-PLG at the anastomotic site; test: Co-localization of E. faecalis and PLG at the anastomotic site; assay type: in vivo, mice; conditions: TXA enema POD 1, 2, 3; POD3
Excerpt: Co-localization of E. faecalis and PLG: Mice underwent anastomotic surgery with postoperative introduction of E. faecalis V583. The mice received post-operative TXA or vehicle enemas as described herein. They received a systemic (intra-peritoneal) injection of 100 L 4 M FITC-labeled PLG one hour prior to sacrifice. Anastomotic tissue was collected in sterile fashion and cryosectioned. Slides were stained with 4′,6-diamidino-2-phenylindole (DAPI) for colonic mucosa. For visualization of microbial organisms, the inventors used probes designed by Miacom Diagnostics, which use a fluorescence in situ hybridization (FISH) beacon-based technology. An E. faecalis-specific probe was labeled with Alexa Fluor 647. Staining was performed overnight per the manufacturer's protocol. Confocal microscopy was performed on a Leica SP5 II AOBS tandem scanner spectral confocal system on a DMI6000 microscope and controlled by LASAF software (version 2.8.3). […] channels were collected at each location using sequential excitation (excitation: 405, 488, and 633; emission: 412-452, 495-537, and 654-755 nm pass bands) on either photomultiplier or HyD hybrid detectors. […]
Co-localization of E. faecalis and plasminogen at the anastomotic site. […] Mice undergoing E. faecalis-mediated anastomotic leak were administered FITC-labeled PLG (as observed by green fluorescence) systemically. […]

RAW macrophages = test: Collagen degradation by RAW macrophages given RAW/E44s conditioned media; assay type: cell-based, murine; conditions: TXA 10 mM, PLG 250 nm, MMP9 1 nM, 4 hours
Protocol: FIG. 16. […] (A), E. faecalis E44 was grown in TY media overnight, and cell-free conditioned media (E44s) was applied to RAW macrophages for 4 hours. PLG, 250 nm, was included in the reaction. […] PLG activation was measured by fluorogenic substrate cleavage. “RAW” column is naïve RAW. *p<0.05, n=6/group. (B), Conditioned media after co-interaction of macrophages with E. faecalis E44 (named RAW/E44s) was applied to naïve RAW macrophages for 4 hours. PLG, 250 nm, and MMP9, 1 nM, were in all reactions. […] “RAW+RAWs” column is naïve macrophages incubated with conditioned media of RAW macrophages (no E. faecalis E44). *p<0.05, n=6/group.
It was then tested whether macrophage collagen degradation activity is enhanced by stimulation with E. faecalis. Conditions from the above experiment (RAW/E44 s) with naïve RAW macrophages were used. PLG and MMP9 were included in the reaction. Degradation of collagen was enhanced by secreted factors produced during the co-interaction of RAW and E44s. […] Finally, to investigate the mechanism of PLG activation by E. faecalis, a parent collagenolytic strain isolated from a patient with AL (V583) was used, along with its mutant derivative (DDGelE/Spr) with secretory collagenolytic factors serine protease (Spr) and gelatinase (GelE) genetically removed. […]

[2] = biological target: T1, P. aeruginosa MPAO1-P2 plasminogen activation (Homo sapiens, UniProt P00747); test: PLG activation by P. aeruginosa; assay type: biochemical; conditions: TY 1:1 with PBS (10 mM phosphate), or water plus 10 mM TXA, versus water alone
T1 construct: 250 nM human glu-plasminogen (Haematologic technologies); purchased Haematologic technologies
Protocol: Plasminogen/uPA activity. Plasmin activity assays were performed as previously described with minor modifications, and fluorescence data was analyzed per the manufacturer's instructions (50′). Incubation times were optimized for bacteria at low optical density to limit internal filter effects in fluorescence-based assays. Bacteria (when included) were grown overnight in TY media. OD600 was normalized by dilution to 0.1, equivalent to 8×10^7 CFU/mL. Samples at OD 0.1 were diluted 1:10 in the final reaction through the addition of media and dissolved substrates. Bacteria were incubated with 250 nM human glu-plasminogen (Haematologic technologies) for two hours at 37° C. TXA (Fisher) was added concomitantly with PLG. A final concentration of 4 nM uPA (Biovision) or pro-uPA (Biovision) was added and incubation proceeded for 20 minutes. A final concentration of 6 M fluorogenic substrate specific for plasmin (H-D-Val-Leu-Lys-AFC, AnaSpec) was added immediately prior to a kinetic fluorescent read with excitation wavelength 380 nm and emission wavelength 500 nm. Reads were conducted every 15 to 30 seconds over the course of 30 minutes. For assays of uPA activity, PLG was omitted from the incubation and a substrate specific to uPA (Z-Gly-Gly-Arg-AMC, Bachem) was used. When assays were performed in human plasma, fluorescence was read for 120 minutes total. […]

T1 sequence (P00747 20-810): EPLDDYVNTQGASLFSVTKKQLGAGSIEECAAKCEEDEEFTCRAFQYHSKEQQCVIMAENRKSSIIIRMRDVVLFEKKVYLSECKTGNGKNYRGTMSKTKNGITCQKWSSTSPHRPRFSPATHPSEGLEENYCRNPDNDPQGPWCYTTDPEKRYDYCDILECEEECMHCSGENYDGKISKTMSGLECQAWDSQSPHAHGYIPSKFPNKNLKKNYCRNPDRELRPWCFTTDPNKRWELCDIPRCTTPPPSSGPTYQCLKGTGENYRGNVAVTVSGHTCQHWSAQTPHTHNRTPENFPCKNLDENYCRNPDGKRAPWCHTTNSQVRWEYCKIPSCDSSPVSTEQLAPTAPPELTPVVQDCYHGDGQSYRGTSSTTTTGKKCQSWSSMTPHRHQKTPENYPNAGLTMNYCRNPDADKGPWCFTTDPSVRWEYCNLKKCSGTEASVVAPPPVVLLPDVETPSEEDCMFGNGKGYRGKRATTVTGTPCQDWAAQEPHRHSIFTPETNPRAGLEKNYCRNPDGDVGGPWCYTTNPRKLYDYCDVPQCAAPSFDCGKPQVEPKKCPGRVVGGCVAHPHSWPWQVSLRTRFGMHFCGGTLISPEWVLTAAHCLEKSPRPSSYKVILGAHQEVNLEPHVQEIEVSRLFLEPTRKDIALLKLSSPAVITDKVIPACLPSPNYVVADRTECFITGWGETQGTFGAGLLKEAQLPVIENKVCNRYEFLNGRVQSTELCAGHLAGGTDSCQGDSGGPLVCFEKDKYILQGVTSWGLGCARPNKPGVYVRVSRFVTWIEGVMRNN

NC[C@H]1CC[C@H](C(=O)O)CC1 [TXA, tranexamic acid]
co-localization of V583 with FITC-PLG at the anastomotic site [1]: effectively prevented co-localization | penetration of V583 into the colonic mucosa [1]: diminished penetration of V583 into the colonic mucosa | collagen degradation by macrophages given RAW/E44s conditioned media (RAW macrophages): attenuated | PLG activation by P. aeruginosa [2]: significantly attenuated | PLG activation by P. aeruginosa ([2]; listed as Tranexamic acid): inhibits

— patent US12383579B2, “Materials and methods of using an inhibitor of plasminogen activation to treat anastomotic leak” (THE UNIVERSITY OF CHICAGO, priority 2018, dated 2025)
